# Data taken from US9169509B2, “Topoisomerase 2b as a predictor of susceptibility to anthracycline-induced cardiotoxicity” (Board of Regents, The University of Texas System, priority 2013, dated 2015).
# Columns and labels:
# cardiomyocytes [1] = experiment: Microarray gene expression profiling with Ingenuity pathway analysis of cardiomyocytes isolated from doxorubicin-treated mice; format: in vivo, mouse
# Procedure: Microarray-based Ingenuity pathway analysis was next used to study the effect of doxorubicin treatment in the Top2b^+/+ and Top2b^Δ/Δ heart in an unbiased way. Mice were treated with tamoxifen for 5 consecutive days. […] Cardiomyocytes were prepared from excised heart and mRNAs were extracted for microarray analysis. Ingenuity pathway analysis of microarray data based on expression changes (>1.5 fold) of 59,306 genes upon doxorubicin treatment identified perturbation (mainly activation) in p53 and β-adrenergic signaling pathways in Top2b^+/+ cardiomyocytes (left bars), but not in Top2bΔ/Δ cardiomyocytes (center bars) (FIG. 1a, FIG. 4a, and Table 1). No difference was found between untreated Top2b^+/+ and Top2b^Δ/Δ cardiomyocytes (right bars). Of particular interest is a 200 fold up-regulation of the transcript encoding p53DINP1, a p53-inducible gene that regulates apoptosis (Sohal et al., 2001) (FIG. 4b). There were also increases in the transcript of Apaf1, Bax, and Fas, genes important in the apoptosis pathway (Ogasawara et al., 1983) (FIG. 4c). Both p53DINP1, Apaf1, Bax, Mdm2, and Fas up-regulation were only observed in doxorubicin-treated Top2b^+/+, but not Top2b^Δ/Δ cardiomyocytes. This is consistent with the previous observation that doxorubicin and Top2b formed a DNA ternary cleavage complex to induce DNA double strand breaks (DSBs), leading to cell death (9).
# To gain further insight into the pathogenesis of doxorubicin-induced cardiotoxicity, the transcriptome analysis was repeated 72 h following doxorubicin exposure. The Ingenuity pathway analysis of microarray data based on expression changes (>1.5 fold) of 59,306 genes upon doxorubicin treatment identified perturbation (mainly repression) in the mitochondria dysfunction and oxidative phosphorylation pathways in Top2b^+/+ cardiomyocytes (left bars), but not in Top2b^Δ/Δ cardiomyocytes (middle bars). No difference was found between untreated Top2b^+/+ and Top2b^Δ/Δ cardiomyocytes (right bars). There was a complete change in the ingenuity pathway profiles 72 h following doxorubicin exposure (FIGS. 1a,d). Early activation in the p53 pathway was replaced by mitochondrial dysfunction and oxidative phosphorylation pathways in the Top2b^+/+, but not Top2b^Δ/Δ cardiomyocytes (FIGS. 1a,d and Table 2). […] This was confirmed by qPCR of analysis of PGC-1α and PGC-1β transcripts (FIG. 1e). […] Consistent with the critical role exerted by PGC-1α and PGC-1β in mitochondrial biogenesis (Arany, Z. et al., 2006; Lai, L. et al., 2008), transcripts of key electron transport chains, such as Ndufa3 (NADH dehydrogenase 1 alpha subcomplex, 3, Complex1), Sdha (succinate dehydrogenase complex, subunit A, Complex II), and Atp5a (alpha subunit of Complex V) were decreased in the doxorubicin treated Top2b^+/+, but much less so in Top2b^Δ/Δ cardiomyocytes (FIG. 1e). […] Thus, in the presence of Top2b, doxorubicin caused decreases in transcripts of genes involved in the regulation of mitochondria biogenesis and function.
# Total RNA was extracted from cardiomyocytes isolated from mouse heart 16 or 72 h after treatment with doxorubicin (25 mg/kg) or drug vehicle using TRIZOL reagent (Invitrogen), then purified with RNeasy Mini Kit (Qiagen) according to the manufacturer's instructions. Purified RNA samples were shipped on dry ice to Miltenyi Biotec Inc. for microarray analysis. Quality control of the sample RNA was performed by the company. Before hybridization, 100 ng of each sample RNA was used for T7-based amplification and Cy3 labeling. The hybridization procedure was performed according to the Agilent 60-mer oligo microarray processing protocol using the Agilent Gene Expression Hybridization Kit (Agilent Technologies). After an overnight hybridization (65° C.) the microarrays were washed and scanned using Agilent Microarray Scanner System (Agilent Technologies).
# cardiomyocytes [2] = experiment: Western blot of Ndufa3, Atp5a and Sdha in mitochondria isolated from cardiomyocytes; format: in vivo, mouse; settings: cardiomyocytes of doxorubicin-treated Top2b+/+ mice, 72 h
# Procedure: Expression of Top2b was examined in the hearts of mice. After sacrifice, the heart was quickly removed and homogenized immediately in lysis buffer. After homogenization, the lysate was sonicated at 4° C. and an aliquot was removed for protein concentration measurement. The lysate was stored at −80° C. for western blot analysis. 20 μg of lysate proteins were electrophoresed and transferred to PVDF membranes. Blots were blocked with 5% non-fat dry milk, and incubated overnight at 4° C. with anti-Top2b antibody (Abcam). To detect mitochondrial proteins, the mitochondria were isolated from cardiomyocytes. The cardiomyocytes were isolated with a Langendorff perfusion system according to a published protocol3. Briefly, heart was removed and rinsed with ice-cold PBS twice before connecting to a Langendorff apparatus through the aorta. The heart was perfused first with perfusion buffer for 3 m at 37° C. (3 ml/min), then digestion buffer (enzyme-containing) buffer at 37° C. for 8-10 m. The heart was disintegrated manually and the tissue/cells were separated by using forceps. […] After incubation with HRP-conjugated secondary antibodies for 40 m at room temperature, the blots were detected with a luminol-based detection kit (ECL, GE Health Care).
# [3] = Top2b+/+ cardiomyocytes, 72 hrs after doxorubicin 25 mg/kg
# [4] = wild type hearts, 72 h after doxorubicin, not in Top2b deleted
structure (smiles),measurement,setting,value
COc1cccc2c1C(=O)c1c(O)c3c(c(O)c1C2=O)C[C@@](O)(C(=O)CO)C[C@@H]3O[C@H]1C[C@H](N)[C@H](O)[C@H](C)O1 [doxorubicin],"Up-regulated genes associated with p53 signaling pathway (expression change, genes listed in Table 1)","cardiomyocytes [1]; Top2b+/+ cardiomyocytes, 16 hrs after doxorubicin 25 mg/kg i.p.",Up-regulated genes (>1.5 fold) associated with p53 signaling pathway
same,Down-regulated genes associated with mitochondrial dysfunction and oxidative phosphorylation pathways (genes listed in Table 2),cardiomyocytes [1]; [3],Down-regulated Genes (>1.5 fold)
same,Up-regulated genes associated with mitochondrial dysfunction and oxidative phosphorylation pathways (genes listed in Table 2),cardiomyocytes [1]; [3],Up-regulatedGenes (>1.5 fold)
same,Expression change of the genes identified in the p53 pathway,"cardiomyocytes [1]; Top2bΔ/Δ cardiomyocytes, 16 hrs after doxorubicin 25 mg/kg i.p.","TP53INP1 is also called p53DINP1. The list was generated by Ingenuity software, and none of the genes identified in the p53 pathway had an expression change that reached 1.5 fold in Top2b^Δ/Δ cardiomyocytes."
same,Expression change of the genes identified in the mitochondrial dysfunction and oxidative phosphorylation pathways,"cardiomyocytes [1]; Top2bΔ/Δ cardiomyocytes, 72 hrs after doxorubicin 25 mg/kg","The list was generated by Ingenuity software, and none of the genes identified in the 2 pathways had an expression change that reached 1.5 fold in Top2b^Δ/Δ cardiomyocytes."
same,PGC-1α downregulation,cardiomyocytes [1]; [4],1.5 fold
same,PGC-1β downregulation,cardiomyocytes [1]; [4],1.5 fold
same,"Protein levels of Ndufa3, Atp5a and Sdha in mitochondria",cardiomyocytes [2],reduction in the protein levels
